Consider one compound from patent publication US11667621B2, “Antiestrogen compounds” (STEVENS INSTITUTE OF TECHNOLOGY, priority 2018, dated 2023).

Type in all cases: cell-based
The target of one experiment is T1, HA-ERα Y537S (Homo sapiens, UniProt P03372, Y537S).
T1 construct: HA; expressed in transfected cells
T1 sequence (P03372 1-595 Y537S): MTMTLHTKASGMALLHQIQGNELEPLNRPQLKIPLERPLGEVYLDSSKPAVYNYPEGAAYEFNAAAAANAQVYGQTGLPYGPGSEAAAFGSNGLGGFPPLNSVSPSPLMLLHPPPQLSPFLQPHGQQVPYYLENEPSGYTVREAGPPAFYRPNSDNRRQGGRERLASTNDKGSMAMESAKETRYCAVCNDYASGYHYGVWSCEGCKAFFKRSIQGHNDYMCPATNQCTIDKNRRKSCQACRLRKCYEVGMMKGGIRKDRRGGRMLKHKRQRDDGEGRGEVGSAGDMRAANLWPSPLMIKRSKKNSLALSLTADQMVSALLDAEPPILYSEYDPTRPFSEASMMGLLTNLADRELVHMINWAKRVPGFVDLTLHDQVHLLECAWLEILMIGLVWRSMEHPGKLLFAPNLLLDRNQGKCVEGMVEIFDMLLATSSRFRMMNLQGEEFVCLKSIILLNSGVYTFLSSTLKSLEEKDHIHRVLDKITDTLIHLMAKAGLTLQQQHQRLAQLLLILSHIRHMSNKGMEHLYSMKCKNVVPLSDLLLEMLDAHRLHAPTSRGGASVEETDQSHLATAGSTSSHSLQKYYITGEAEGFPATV
Description: Luciferase assay, overexpressed ER (3×-ERE-TATA-Luciferase reporter). The procedure:
(§1) Luciferase assays were performed to determine the efficacy of the example compounds at inhibiting ER or its mutants' ability to activate transcription of genes.
(§2) Cells were plated at a density of 0.15×10^6 per well of 24 well plates one day prior to transfection. Cells were transfected with 125 ng (per well) of HA-ERα wild type or mutants, 315 ng (per well) of 3×-ERE-TATA-Luciferase reporter and 50 ng (per well) of pRL-TK Renilla Luciferase plasmid, using Xtremegene (Roche). The cells were treated with the various compounds or Fulvestrant at the indicated doses a day after transfection for 24 hours and luciferase activities were determined using the Dual-Luciferase® Reporter Assay System (Promega) according to manufacturer's instructions. Luciferase bioluminescence measurements were performed with the Veritas™ Microplate Luminometer (Promega). All experiments were conducted in triplicate and the Firefly luciferase activity was normalized with the Renilla luciferase activity of each sample.

The next experiment concerns the target T2, HA-ERα L536R (Homo sapiens, UniProt P03372, L536R).
T2 construct: HA; expressed in transfected cells
T2 sequence (P03372 1-595 L536R): T1 sequence (P03372 1-595 Y537S) with L536R, S537Y
The description is as above. On the procedure: as §1, §2

The next experiment has as its target T3, HA-ERα D538G (Homo sapiens, UniProt P03372, D538G).
T3 construct: HA; expressed in transfected cells
T3 sequence (P03372 1-595 D538G): T1 sequence (P03372 1-595 Y537S) with S537Y, D538G
The experiment is described as above. On the procedure:
as §1, §2

A further experiment deals with T4, HA-ERα wild type (Homo sapiens, UniProt P03372).
T4 construct: HA; expressed in transfected cells
T4 sequence (P03372 1-595): T1 sequence (P03372 1-595 Y537S) with S537Y
Described as above. On the procedure:
as §1, §2

A further experiment has as its system Y537S cl. 24. Description: Cell proliferation assay (Resazurin). The procedure: (§3) Cell proliferation assays were performed to determine the efficacy of the compounds at inhibiting ER or its mutants' ability at promoting cell proliferation.
(§4) Cells were plated at 1500 cells/well into 96-well culture plates in regular media, treated with the indicated doses of the compounds or Fulvestrant the next day and incubated in a humidified incubator with 5% CO2 at 37° C. They were assayed for cell proliferation at Day 0, 3, 5 and 7 using the Resazurin reagent (R&D Systems), which upon addition, culture plates were incubated at 37° C. incubator for 4 hours before their fluorescence were read at 560 nm excitation and 590 nm emission wavelengths with a microtiter plate reader (Molecular Devices).
(In general: Resazurin is reduced to fluorescent resorufin, in cell work by metabolically active cells.)

A further experiment has as its system D538G cl. 65. The experiment in a line: Cell proliferation assay (Resazurin). The procedure:
as §3, §4

A further experiment concerns MCF7. The experiment in a line: Cell proliferation assay (Resazurin). As to conditions: Homo sapiens. The procedure:
as §3, §4

Setting [1] is: compound concentration 1 μM, 24 hours.

Positions count from the first letter of the chain named.

In general, inhibition refers to the percentage by which the read-out fell short of the control. As a reminder, the IC90 is the concentration needed for an effect of 90%. The low end stands for an effect from little substance, the high end for a need for much substance.

For the compound `O=C(NCCCCOc1ccc(Oc2c(-c3ccc(O)cc3)sc3cc(O)ccc23)cc1)[C@H]1CC[C@H](C(F)(F)F)CC1` [Example 17, (trans)-N-(4-(4-((6-Hydroxy-2-(4-hydroxyphenyl)benzo[b]thiophen-3-yl)oxy)phenoxy)butyl)-4-(trifluoromethyl)cyclohexanecarboxamide], the inhibition at 1 µM on HA-ERα Y537S (setting [1]) stood at 95%; against HA-ERα L536R (setting [1]) it was 94%; against HA-ERα D538G (setting [1]), 95%; at HA-ERα wild type (compound concentration 1 μM, 24 hours, read-out: Overexpressed ER (% Inhibition) WT), 96%. The IC90 on HA-ERα Y537S (luciferase assay, Table 4) stood at 464 nM; at HA-ERα L536R (luciferase assay, Table 4) it was 124 nM; against HA-ERα D538G (luciferase assay, Table 4), 175 nM; on HA-ERα wild type (luciferase assay, Table 4), 19 nM; in the experiment on Y537S cl. 24 it was 304 nM; in the experiment on D538G cl. 65 it was 315 nM. In the experiment with MCF7, this compound gave a concentration for an effect of 90% (IC90) of 22.1 nM.
